# Laboratory results as given in article PMC11347150, “Aurora: a fluorescent deoxyribozyme for high-throughput screening” (Nucleic Acids Research, 2024).
# Legend:
# [1] = design: method as in PMID 9873685, PMID 18355003; settings: pH 10; cited from earlier work
# [2] = molecular target: Nsp15 (Severe acute respiratory syndrome coronavirus 2, UniProt P0DTD1); settings: 1 mM ZnCl2, negative control wells
# Protocol: Small molecules from a 1000-member fragment screen library (Maybridge) were transferred to the wells of 384-well plates using an Echo 550 liquid handler. Nsp15 protein in 1 × Nsp15 buffer (50 mM KCl, 20 mM HEPES pH 7.4, 5 mM MnCl2, 0.003% (v/v) Tween20) was then added using a CERTUS Flex liquid handler. After mixing, the Aurora Nsp15 sensor (in 1 × Nsp15 buffer) was added using a CERTUS Flex liquid handler. Reactions were mixed again. Final concentrations were 25 μM Aurora Nsp15 sensor, 400 nM Nsp15 protein, 1 × Nsp15 buffer (50 mM KCl, 20 mM HEPES pH 7.4 and 5 mM MnCl2), 0.003% (v/v) Tween20, and 200 μM small molecule from the fragment screen library in a volume of 20 μl. […] The reaction mixture was incubated at room temperature for 4 h, and fluorescence was measured using a Tecan Spark plate reader. Fluorescence was measured in a black flat bottom 384-well plate (Corning).
# The average value of this background was subtracted from the fluorescence values obtained from all other wells. […] Activity of Nsp15 in the presence of small molecules from the fragment screen library was calculated relative to this positive control value. Z-factors ([22]) were calculated for each 384-well plate to determine the quality of the screen. […]
SMILES,Brightness (ϵ × Φ) [1],Extinction coefficient (ϵ) [1],Maximum emission wavelength (λem) [1],Maximum excitation wavelength (λmax) [1],Quantum yield (Φ) [1],inhibition of Nsp15 [2]
Cc1cc(=O)oc2cc(O)ccc12 [4-MU],10 710 M^−1 cm^−1,17 000 M^−1 cm^−1,450 nm,360 nm,0.63,–
[Cl-].[Cl-].[Zn+2] [ZnCl2],–,–,–,–,–,inhibited Nsp15
